{"source": "patent US20110300142A1", "about": "“USE OF ZEBURALINE FOR THE TREATMENT OF AUTOIMMUNE DISEASES OR IMMUNE REJECTION OF TRANSPLANTS” (priority 2007, published 2011)", "key": {"[1]": {"conditions": "compared to azacytidine or 2′-deoxy-azacytidine; cited from earlier work"}, "[2]": {"system": "tumour cells", "assay": "PGE2, NO and tumour antigen production of treated tumour cells", "assay_type": "cell-based, rat", "conditions": "100 μM zebularine treatment", "method": "(§1) The treatment with 100 μM of zebularine induced IDO mRNA expression in all three cell lines. A 48-fold increase of the IDO mRNA level in the H1D2WT cell line, a 24-fold increase in the H1D2IL12C46 cell line and a 14-fold increase in the H1D2IL18C2 cell line were detected. […] The inventors know that the 100 μM treatment of tumour cells strongly induces the production of the immunosuppressive molecule IDO but the induction of other T cell immunosuppressive molecules might also be involved, although no evidence has been found for an effect on prostaglandine E2 (PGE2) or nitric oxide (NO) production. It seems that the 100 μM zebularine treatments are not affecting the PGE2 production, the NO production, or the production of tumour antigens."}, "[3]": {"system": "rat spleen lymphocytes", "assay": "Proliferation of stimulated rat spleen lymphocytes", "assay_type": "cell-based", "conditions": "rat spleen cells", "method": "(§2) FIG. 4A show proliferation of stimulated human lymphocytes after five days in culture in the presence of zebularine at different concentrations, FIG. 4B show restoration of inhibited proliferation of stimulated human lymphocytes after five days in culture in the presence of zebularine at two different concentrations and the IDO inhibitor 1-methyl tryptophane at 100 μM and FIG. 4C show proliferation of stimulated rat spleen lymphocytes after four days in culture in the presence of zebularine at different concentrations.\n(§3) In an experiment the inventors tested the immunogenicity of genetically engineered rat colon cancer cells expressing rat interleukin 12. These cancer cells have repeatedly been used to immunize rats that create a strong immune response towards the rat tumour cells. […] This was congruent with the changes in expression of IDO (FIG. 3). […] There is a very reproducible induction of IDO (about 20-fold) from different human leukocyte cultures with a slight interindividual variation."}, "[4]": {"system": "IDO mRNA expression", "assay": "qRT-PCR analysis of IDO mRNA expression in rat colon cancer cell lines", "assay_type": "cell-based", "conditions": "for increase of the IDO mRNA level: 100 μM zebularine, normalized to HPRT", "method": "The values given are normalized in relation to the HPRT expression values.\nas §1"}, "[5]": {"system": "p16 gene expression", "conditions": "zebularine 100-500 μM; cited from earlier work"}, "[6]": {"conditions": "cited from earlier work"}, "[7]": {"system": "IDO", "assay": "IDO production in rat spleen cells", "assay_type": "cell-based", "conditions": "similar treatment (100 μM)", "description": "as §3"}, "[8]": {"conditions": "mouse, cited from earlier work"}, "[9]": {"system": "IDO", "assay": "IDO induction in human buffy coat leukocyte cultures", "assay_type": "cell-based", "conditions": "different human leukocyte cultures, slight interindividual variation", "description": "as §3"}, "[10]": {"system": "rat colon cancer cells", "assay": "Immunization of rats with zebularine-pretreated tumour cells; proliferative response of spleen cells / immunogenicity", "assay_type": "in vivo", "method": "as §1, §3"}, "[11]": {"system": "bladder carcinoma cells", "conditions": "zebularine 500-1000 mg/kg; cited from earlier work"}, "[12]": {"system": "human lymphocytes", "assay": "Proliferation of stimulated human lymphocytes", "assay_type": "cell-based", "method": "as §2, §3"}}}
{"smiles": "O=c1ncccn1[C@@H]1O[C@H](CO)[C@@H](O)[C@H]1O", "note": "[zebularine, 1-(β-D-Ribofuranosyl)-1,2-dihydropyrimidin-2-one]", "values": [{"measurement": "stability", "setting": "[1]", "value": "stable"}, {"measurement": "toxicity", "setting": "[1]", "value": "not very toxic"}, {"measurement": "NO production", "setting": "[2]", "value": "not affecting"}, {"measurement": "PGE2 production", "setting": "[2]", "value": "not affecting"}, {"measurement": "production of tumour antigens", "setting": "[2]", "value": "not affecting"}, {"measurement": "polyclonal lymphocyte proliferation", "setting": "[3]", "value": "strong suppression"}, {"measurement": "production of IDO", "setting": "[4]; 100 μM", "value": "strongly enhance"}, {"measurement": "increase of the IDO mRNA level", "setting": "[4]; H1D2IL12C46 cell line", "value": 24, "unit": "fold"}, {"measurement": "increase of the IDO mRNA level", "setting": "[4]; H1D2IL18C2 cell line", "value": 14, "unit": "fold"}, {"measurement": "increase of the IDO mRNA level", "setting": "[4]; H1D2WT cell line", "value": 48, "unit": "fold"}, {"measurement": "p16 gene expression", "setting": "[5]", "value": "induces p16 gene expression"}, {"measurement": "solubility in water", "setting": "[6]", "value": "soluble in water"}, {"measurement": "IDO production", "setting": "[7]", "value": "enhanced IDO production"}, {"measurement": "fraction of dose absorbed in tissues", "setting": "[8]; i.v., 100 mg/kg, plasma, red blood cells, liver, kidney, spleen, heart, lung, muscle, Duodenum, Jejunum, Ileum, Colon and Carcass", "value": "about 60%"}, {"measurement": "bioavailability after i.v. injection", "setting": "[8]; i.v.", "value": "good"}, {"measurement": "bioavailability for Fat, Brain, Testes, Cecum and Stomach", "setting": "[8]; i.v.", "value": "less"}, {"measurement": "turnover in tissues", "setting": "[8]; many tissues", "value": "quite fast"}, {"measurement": "metabolites", "setting": "[8]", "value": "uridine, uracil and dihydrouracil"}, {"measurement": "induction of IDO", "setting": "[9]", "value": "about 20 fold"}, {"measurement": "immunogenicity of rat colon cancer cells expressing rat interleukin 12 when used for immunization", "setting": "[10]; cells pre-treated with 100 μM zebularine", "value": "less immunogenic"}, {"measurement": "proliferative response of non-adherent spleen cells stimulated with tumor cells in vitro", "setting": "[10]; rats immunized with tumour cells pretreated with 100 μM zebularine", "value": "very weak proliferative response"}, {"measurement": "in vivo p16 gene expression", "setting": "[11]", "value": "induced"}, {"measurement": "tumour volume", "setting": "[11]", "value": "reduced"}, {"measurement": "polyclonal lymphocyte proliferation", "setting": "[12]; human buffy coat leukocytes", "value": "strong suppression"}]}
{"smiles": "Cn1cc(C[C@H](N)C(=O)O)c2ccccc21", "note": "[1-methyl tryptophan, reference compound]", "values": [{"measurement": "effect on zebularine-induced suppression of proliferation", "setting": "[12]; IDO inhibitor added to zebularine-treated stimulated human lymphocytes, 100 μM, five days", "value": "can be blocked"}]}
